# “And” between values parts separate entries of the source, which are not always exact repeats. Identical values can stand only once. Like-named read-outs stand apart in the source and are kept apart here.
# Assays:
# HSV-1 [1] = assay: Plaque assay, plaquing efficiency of HSV-1 in serum-starved Vero cells; assay type: cell-based, Herpes Simplex Type I (HSV-1)
# Method: Plaque assays were performed on confluent, serum-starved monolayers of Vero cells in 100 mm dishes (Corning). Growth medium was removed by aspiration and 10 ml of low serum media was added. Monolayers were grown in this medium for 5 days. […] After incubation, the inoculum was removed by aspiration and replaced with 2 ml of agarose-medium maintained at 42° C. The agarose-medium overlay contained a fresh 1:1 mixture of: […] A plaque assay was used to confirm the antiviral activity of cyclocreatine detected in the cytopathogenicity studies described above. Vero cells were grown in 100 mm dishes and were serum-starved. Each dish, with the exception of uninfected controls, was inoculated with HSV-1 virus and incubated with various concentrations of cyclocreatine until plaques appeared in the plates exposed to virus alone.
# Adenovirus type 5 = assay: CPE assay, adenovirus in DU 145 cells; assay type: cell-based; settings: 0.3125-10 mg/ml, FIG. 15A
# Method: Adenovirus type 5 was obtained from the ATCC. DU 145 cells were obtained from the American Type Culture Collection. Cells were infected with virus and cyclocreatine was assayed for antiviral activity using the cytopathic effect (CPE) assay essentially as described in Example 1.
# [2] = test system: Vesicular stomatitis virus (VSV), Indiana strain; assay type: cell-based; settings: 62.5 μg/ml-4 mg/ml; Vero cells and BHK-21 cells; scale 0-4; no drug controls 4.0
# [3] = test system: Influenza A/Port Chalmers/1/73 (H3 N2); assay: CPE-reduction assay, Influenza A in MDCK cells; assay type: cell-based; settings: 62.5 μg/ml-4 mg/ml
# [4] = test system: Influenza B/Hong Kong/5/72; assay: CPE-reduction assay, Influenza B in MDCK cells; assay type: cell-based; settings: 62.5 μg/ml-4 mg/ml; only at the highest concentration
# Method: Cyclocreatine was prepared at a concentration of 100 mg/ml in MEM, without serum, 0.18% NaHCO3, 50 μg/ml gentamicin. Further dilutions (2-fold dilution scheme) were made in MEM without serum.
# Cells (0.2 ml/well) were seeded in 96-well flat bottom tissue culture plates, (Corning Glass Works, Corning, N.Y.). The cells were incubated overnight in order to establish cell monolayers. Growth medium was decanted from the 96-well plates and various dilutions of compound were added to wells of the plate (4 wells/dilution; 0.1 ml/well). Medium alone was added to uninfected cell and virus (no drug) control wells (0.1 ml/well). Virus, diluted in test medium (0.1 ml final volume), was added to all compound test wells of the plate (3 wells/dilution) and to 9 virus control wells. Test medium (0.1 ml/well) without virus was added to all toxicity control wells (1 well/dilution for each compound tested) and to 3 uninfected cell control wells.
# The plates were incubated at 37° C. until virus control wells (no drug) had CPE readings near 100% CPE. Cells were then examined microscopically for virus CPE and graded on a scale of 0-4, with 0 being no CPE and 4 being 100% CPE. The cells in toxicity control wells were observed microscopically and graded for morphological changes due to cytotoxicity. […]
# [5] = test system: HCMV, strain C8704 (DHPG resistant); assay: microbe, parasite or virus in culture; assay type: cell-based, Human Cytomegalovirus; parameters: TI50 (CD50 ÷ ED50): unit not given beside the values; settings: for # Plaques: virus control 91.0 ± 8.4
# [6] = test system: Murine Cytomegalovirus (MCMV), strain Smith; assay: Plaque reduction, murine cytomegalovirus in C127I cells; assay type: cell-based; settings: Murid betaherpesvirus 1; 10 mg/ml
# [7] = test system: Herpes Simplex Virus, Type 1, strain BW10168 (TK-); assay: microbe, parasite or virus in culture; assay type: cell-based; parameters: TI50 (CD50 ÷ ED50): unit not given beside the values; settings: for Average CPE: virus controls 4.0; for EC50: Human alphaherpesvirus 1, Vero
# Vero cells = settings: monkey
# in vitro = settings: monkey, vero cells
# HSV-1 [8] = assay: Cytopathic effect (CPE) assay, HSV-1
# DU 145 cells = assay: Drug cytotoxicity in CPE assay, DU 145 cells; settings: 10 mg/ml, 0 PFUs
# [9] = Dietary feeding of cyclocreatine, tolerance and uptake; settings: mice, up to 1% of diet for 2 weeks or over 4 weeks
compound,measurement,setting,value
"NC1=NCCN1CC(=O)O [cyclocreatine, 1-carboxymethyl-2-iminoimidazolidine]",effect on plaquing efficiency,HSV-1 [1]; FIG. 9,reduced the plaquing efficiency
same,number of plaques,"HSV-1 [1]; second experiment, 4 mg/ml (755 at 0 mg/ml)",120
same,effect on cytopathic effect,Adenovirus type 5,inhibited the cytopathic effect
same,CPE grade,[2],4.0
same,antiviral activity,[3],did not display significant antiviral activity
same,effect on CPE,[4],slight inhibitory effect
same,# Plaques,[5]; AM 285 156.25 μg/ml,81
same,# Plaques,[5]; AM 285 312.5 μg/ml,65.5
same,# Plaques,[5]; AM 285 625 μg/ml,52.5
same,# Plaques,[5]; AM 285 1250 μg/ml,48.5
same,# Plaques,[5]; AM 285 2500 μg/ml,14.5
same,# Plaques,[5]; AM 285 5000 μg/ml,3.5
same,# Plaques,[5]; AM 285 10000 μg/ml,0
same,inhibition at 156.25 µg/mL,"[5]; Human betaherpesvirus 5, MRC5, AM 285 156.25 μg/ml, read-out: % Reduction",0%
same,inhibition at 312.5 µg/mL,"[5]; Human betaherpesvirus 5, MRC5, AM 285 312.5 μg/ml, read-out: % Reduction",28%
same,inhibition at 625 µg/mL,"[5]; Human betaherpesvirus 5, MRC5, AM 285 625 μg/ml, read-out: % Reduction",42%
same,inhibition at 1250 µg/mL,"[5]; Human betaherpesvirus 5, MRC5, AM 285 1250 μg/ml, read-out: % Reduction",47%
same,inhibition at 2500 µg/mL,"[5]; Human betaherpesvirus 5, MRC5, AM 285 2500 μg/ml, read-out: % Reduction",84%
same,inhibition at 5000 µg/mL,"[5]; Human betaherpesvirus 5, MRC5, AM 285 5000 μg/ml, read-out: % Reduction",96%
same,inhibition at 10000 µg/mL,"[5]; Human betaherpesvirus 5, MRC5, AM 285 10000 μg/ml, read-out: % Reduction",100%
same,EC50,"[5]; Human betaherpesvirus 5, MRC5, MRC-5 cells, Table 6, read-out: ED50 (the source's name)",900 µg/mL
same,TI50 (CD50 ÷ ED50),"[5]; MRC-5 cells, Table 6",> 11.1
same,inhibition at 10000 µg/mL,[6],53%
same,Average CPE,[7]; AM-285 62.5 μg/ml,3.2
same,Average CPE,[7]; AM-285 125 μg/ml,3.5
same,Average CPE,[7]; AM-285 260 μg/ml,3.2
same,Average CPE,[7]; AM-285 500 μg/ml,1.7
same,Average CPE,[7]; AM-285 1000 μg/ml,1.8
same,Average CPE,[7]; AM-285 2000 μg/ml,2.0
same,Average CPE,[7]; AM-285 4000 μg/ml,0.7
same,EC50,"[7]; read-out: ED50, Vero cells, Table 8",384 µg/mL
same,EC50,"[7]; read-out: ED50, as stated in text",~900 µg/mL and ~6.3 mM
same,TI50 (CD50 ÷ ED50),"[7]; Vero cells, Table 8",> 4.5
same,CC50,Vero cells,> 28 mM
same,CD50,Vero cells,greater than 4 mg/ml
same,CC50,in vitro,> 4000 µg/mL and > 28 mM
same,EC50,"HSV-1 [8]; Human alphaherpesvirus 1, Vero, read-out: 50% effective dose (ED50)",1270 µg/mL and ~9 mM
same,IC20,"HSV-1 [8]; Human alphaherpesvirus 1, Vero, read-out: concentration required for ~20% inhibition",35 mM
same,EC65,"HSV-1 [8]; Human alphaherpesvirus 1, Vero, read-out: dose required to inhibit cytopathogenicity by 65%",35 mM
same,"effect on percent monolayer cell death, second set of experiments","HSV-1 [8]; Vero cells, 0-200 PFU, series of concentrations",consistent dose-dependent inhibition
same,dose response against cytopathogenicity,"HSV-1 [8]; Vero cells, 0.31-5.0 mg/ml, FIG. 16",shows a dose response
same,effect on cytopathic effect,"HSV-1 [8]; contact-inhibited A459 cells, FIG. 7A",inhibited the cytopathic effect
same,effect on cytopathic effect,"HSV-1 [8]; contact-inhibited BalbC/3T3 cells, FIG. 3A",inhibited the cytopathic effect
same,effect on cytopathic effect,"HSV-1 [8]; serum-starved DU145 cells, FIG. 5A",inhibited the cytopathic effect
same,therapeutic index,HSV-1 [8]; serum-starved Vero cells,> 7.6
same,effect on cytopathic effect,"HSV-1 [8]; serum-starved Vero cells, 0.71-4.0 mg/ml, FIG. 1A",inhibited the cytopathic effect
same,cytotoxicity,DU 145 cells,some cytotoxicity
same,tolerance of dietary cyclocreatine,[9],without gross adverse effects

# Source: patent US5321030A, “Creatine analogs having antiviral activity” (priority 1991, dated 1994)
